# System: rhizoctonia solani
# Assay: Antifungal rate (inhibition of hypha growth) on potato glucose culture medium plates
# Format: cell-based
# Settings: 16 mg/L in potato glucose culture medium, 28° C.
smiles,measurement,setting,value
NC(=O)c1cccc2nc3ccccc3nc12 [phenazine-1-carboxamide],antifungal activity (antifungal rate) against rhizoctonia solani,acidity (pH) 4.0,65%
same,antifungal activity (antifungal rate) against rhizoctonia solani,acidity (pH) 5.0,69%
same,antifungal activity (antifungal rate) against rhizoctonia solani,acidity (pH) 6.0,73.6%
same,antifungal activity (antifungal rate) against rhizoctonia solani,acidity (pH) 7.0,80.1%
same,antifungal activity (antifungal rate) against rhizoctonia solani,acidity (pH) 8.0,90%

# From US9491943B2, “Bioengineering strain for production of novel microorganism-originated fungicides and uses thereof” (SHANGHAI JIAOTONG UNIVERSITY, priority 2011, dated 2016)
